# Experimental data published in patent publication US12723063B2, “GIPR-agonist compounds” (Eli Lilly and Company, priority 2019, dated 2026).
# *1 amine or outer side, *2 acyl side, *3 side chain or, on linkers, in order; H or OH if unused. Where a SMILES comes first, the peptide text is derived from it. Side-chain parts run from the residue outwards. [ ]: non-standard residue; d: D form. The star is where a group is joined. C18 diacid = O=C(O)CCCCCCCCCCCCCCCCC(=O)*; γGlu = O=C(O)[C@H](CCC(=O)[*:2])N[*:1]; 4Pal = N[C@@H](Cc1ccncc1)C(=O)O; AEEA = NCCOCCOCC(=O)O; Aib = CC(C)(N)C(=O)O
# Legend:
# [1] = target: T1, human glucose-dependent insulinotropic peptide receptor (GIPR) (Homo sapiens, UniProt P48546); assay: cAMP functional assay (HTRF) in HEK293 cells in presence of 0.1% casein; format: cell-based; details: HEK293 cells expressing human GIPR, geometric mean, read-out: hGIPR cAMP Rel EC50 nM (SEM, n)
# T1 construct: expressed in transfected cells; host or cells: HEK293
# T1 sequence (P48546 22-466): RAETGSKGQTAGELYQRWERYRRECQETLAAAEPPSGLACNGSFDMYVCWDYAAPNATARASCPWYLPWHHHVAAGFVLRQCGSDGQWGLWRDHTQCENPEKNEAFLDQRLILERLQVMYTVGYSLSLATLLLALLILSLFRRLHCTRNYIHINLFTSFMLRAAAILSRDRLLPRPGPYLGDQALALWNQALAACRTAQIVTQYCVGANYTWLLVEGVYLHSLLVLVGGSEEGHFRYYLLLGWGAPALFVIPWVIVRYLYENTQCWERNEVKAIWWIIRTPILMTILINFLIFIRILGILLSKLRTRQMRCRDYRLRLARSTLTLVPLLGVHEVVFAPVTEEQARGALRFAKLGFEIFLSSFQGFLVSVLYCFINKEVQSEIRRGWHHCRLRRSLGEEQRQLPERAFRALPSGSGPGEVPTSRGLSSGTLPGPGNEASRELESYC
# [2] = target: T2, human glucagon receptor (GcgR) (Homo sapiens, UniProt P47871); assay: as above; format: cell-based; details: HEK293 cells expressing human GcgR, geometric mean, read-out: hGcgR cAMP Rel EC50 nM (SEM, n)
# T2 construct: expressed in transfected cells; host or cells: HEK293
# T2 sequence (P47871 26-477): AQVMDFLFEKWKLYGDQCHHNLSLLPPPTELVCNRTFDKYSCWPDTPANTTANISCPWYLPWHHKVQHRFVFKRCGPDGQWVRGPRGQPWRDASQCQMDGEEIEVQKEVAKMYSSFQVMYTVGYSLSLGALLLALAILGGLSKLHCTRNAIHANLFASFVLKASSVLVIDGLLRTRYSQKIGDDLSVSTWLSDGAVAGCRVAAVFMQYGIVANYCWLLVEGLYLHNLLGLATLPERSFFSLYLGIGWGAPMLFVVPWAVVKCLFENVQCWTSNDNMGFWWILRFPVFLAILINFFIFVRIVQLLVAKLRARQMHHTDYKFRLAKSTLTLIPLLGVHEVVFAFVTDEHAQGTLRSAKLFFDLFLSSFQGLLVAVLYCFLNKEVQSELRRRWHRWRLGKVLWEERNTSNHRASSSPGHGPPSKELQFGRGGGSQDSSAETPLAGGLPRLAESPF
SMILES,EC50 [1],EC50 [2]
CC[C@H](C)[C@H](NC(=O)[C@H](CO)NC(=O)[C@H](Cc1ccc(O)cc1)NC(=O)[C@H](CC(=O)O)NC(=O)[C@H](CO)NC(=O)[C@@H](NC(=O)[C@H](Cc1ccccc1)NC(=O)[C@@H](NC(=O)CNC(=O)[C@H](CCC(=O)O)NC(=O)[C@@H](C)NC(=O)[C@@H](N)Cc1ccc(O)cc1)[C@@H](C)O)[C@@H](C)CC)C(=O)N[C@@H](CC(C)C)C(=O)N[C@@H](CC(C)C)C(=O)N[C@@H](CC(=O)O)C(=O)N[C@@H](CCCCN)C(=O)N[C@@H](CCCCNC(=O)COCCOCCNC(=O)COCCOCCNC(=O)CC[C@H](NC(=O)CCCCCCCCCCCCCCCCC(=O)O)C(=O)O)C(=O)N[C@@H](C)C(=O)N[C@@H](CCC(N)=O)C(=O)NC(C)(C)C(=O)N[C@@H](CC(=O)O)C(=O)N[C@@H](Cc1ccccc1)C(=O)N[C@H](C(=O)N[C@@H](CC(N)=O)C(=O)N[C@@H](Cc1ccncc1)C(=O)N[C@@H](CC(C)C)C(=O)N[C@@H](CC(C)C)C(=O)N[C@@H](C)C(=O)N[C@@H](CCC(N)=O)C(=O)NCC(=O)N1CCC[C@H]1C(=O)N[C@@H](CO)C(=O)N[C@@H](CO)C(=O)NCC(=O)N[C@@H](C)C(=O)N1CCC[C@H]1C(=O)N1CCC[C@H]1C(=O)N1CCC[C@H]1C(=O)N[C@@H](CO)C(N)=O)C(C)C [Example 18] (H-Y[dA]EGTFISDYSILLDKK([AEEA-AEEA-γGlu-C18 diacid])AQ[Aib]DFVN[4Pal]LLAQGPSSGAPPPS-NH2),0.00656 nM,> 5000 nM
CC[C@H](C)[C@H](NC(=O)[C@H](CO)NC(=O)[C@H](Cc1ccc(O)cc1)NC(=O)[C@H](CC(=O)O)NC(=O)[C@H](CO)NC(=O)[C@@H](NC(=O)[C@H](Cc1ccccc1)NC(=O)[C@@H](NC(=O)CNC(=O)[C@H](CCC(=O)O)NC(=O)[C@@H](C)NC(=O)[C@@H](N)Cc1ccc(O)cc1)[C@@H](C)O)[C@@H](C)CC)C(=O)N[C@@H](CC(C)C)C(=O)N[C@@H](CC(C)C)C(=O)N[C@@H](CC(=O)O)C(=O)N[C@@H](CCCCN)C(=O)N[C@@H](CCCCNC(=O)COCCOCCNC(=O)COCCOCCNC(=O)CC[C@H](NC(=O)CCCCCCCCCCCCCCCCC(=O)O)C(=O)O)C(=O)N[C@@H](C)C(=O)N[C@@H](CCC(N)=O)C(=O)NC(C)(C)C(=O)N[C@@H](CC(=O)O)C(=O)N[C@@H](Cc1ccccc1)C(=O)N[C@H](C(=O)N[C@@H](CC(N)=O)C(=O)N[C@@H](Cc1c[nH]c2ccccc12)C(=O)N[C@@H](CC(C)C)C(=O)N[C@@H](CC(C)C)C(=O)N[C@@H](C)C(=O)NCC(=O)NCC(=O)N1CCC[C@H]1C(=O)N[C@@H](CO)C(=O)N[C@@H](CO)C(=O)NCC(=O)N[C@@H](C)C(=O)N1CCC[C@H]1C(=O)N1CCC[C@H]1C(=O)N1CCC[C@H]1C(=O)N[C@@H](CO)C(N)=O)C(C)C [Example 19] (H-Y[dA]EGTFISDYSILLDKK([AEEA-AEEA-γGlu-C18 diacid])AQ[Aib]DFVNWLLAGGPSSGAPPPS-NH2),0.00992 nM,> 5000 nM
CC[C@H](C)[C@H](NC(=O)[C@H](CO)NC(=O)[C@H](Cc1ccc(O)cc1)NC(=O)[C@H](CC(=O)O)NC(=O)[C@H](CO)NC(=O)[C@@H](NC(=O)[C@H](Cc1ccccc1)NC(=O)[C@@H](NC(=O)CNC(=O)[C@H](CCC(=O)O)NC(=O)[C@@H](C)NC(=O)[C@@H](N)Cc1ccc(O)cc1)[C@@H](C)O)[C@@H](C)CC)C(=O)N[C@@H](CC(C)C)C(=O)N[C@@H](CC(C)C)C(=O)N[C@@H](CC(=O)O)C(=O)N[C@@H](CCCCN)C(=O)N[C@@H](CCCCNC(=O)COCCOCCNC(=O)COCCOCCNC(=O)CC[C@H](NC(=O)CCCCCCCCCCCCCCCCC(=O)O)C(=O)O)C(=O)N[C@@H](C)C(=O)N[C@@H](CCC(N)=O)C(=O)NC(C)(C)C(=O)N[C@@H](CCC(=O)O)C(=O)N[C@@H](Cc1ccccc1)C(=O)N[C@H](C(=O)N[C@@H](CC(N)=O)C(=O)N[C@@H](Cc1c[nH]c2ccccc12)C(=O)N[C@@H](CC(C)C)C(=O)N[C@@H](CC(C)C)C(=O)N[C@@H](C)C(=O)N[C@@H](CCC(N)=O)C(=O)NCC(=O)N1CCC[C@H]1C(=O)N[C@@H](CO)C(=O)N[C@@H](CO)C(=O)NCC(=O)N[C@@H](C)C(=O)N1CCC[C@H]1C(=O)N1CCC[C@H]1C(=O)N1CCC[C@H]1C(=O)N[C@@H](CO)C(N)=O)C(C)C [Example 20] (H-Y[dA]EGTFISDYSILLDKK([AEEA-AEEA-γGlu-C18 diacid])AQ[Aib]EFVNWLLAQGPSSGAPPPS-NH2),0.00933 nM,> 5000 nM
CC[C@H](C)[C@H](NC(=O)[C@H](CO)NC(=O)[C@H](Cc1ccc(O)cc1)NC(=O)[C@H](CC(=O)O)NC(=O)[C@H](CO)NC(=O)[C@@H](NC(=O)[C@H](Cc1ccccc1)NC(=O)[C@@H](NC(=O)CNC(=O)[C@H](CCC(=O)O)NC(=O)C(C)(C)NC(=O)[C@@H](N)Cc1ccc(O)cc1)[C@@H](C)O)[C@@H](C)CC)C(=O)N[C@@H](C)C(=O)N[C@@H](CC(C)C)C(=O)N[C@@H](CC(=O)O)C(=O)N[C@@H](CCCCN)C(=O)N[C@@H](CCCCNC(=O)COCCOCCNC(=O)COCCOCCNC(=O)CC[C@H](NC(=O)CCCCCCCCCCCCCCCCC(=O)O)C(=O)O)C(=O)N[C@@H](Cc1c[nH]cn1)C(=O)N[C@@H](CCC(N)=O)C(=O)NC(C)(C)C(=O)N[C@@H](CC(=O)O)C(=O)N[C@@H](Cc1ccccc1)C(=O)N[C@H](C(=O)N[C@@H](CCC(=O)O)C(=O)N[C@@H](Cc1ccncc1)C(=O)N[C@@H](CC(C)C)C(=O)N[C@@H](CC(C)C)C(=O)N[C@@H](C)C(=O)NCC(=O)NCC(=O)N1CCC[C@H]1C(=O)N[C@@H](CO)C(=O)N[C@@H](CO)C(=O)NCC(=O)N[C@@H](C)C(=O)N1CCC[C@H]1C(=O)N1CCC[C@H]1C(=O)N1CCC[C@H]1C(=O)N[C@@H](CO)C(N)=O)C(C)C [Example 21] (H-Y[Aib]EGTFISDYSIALDKK([AEEA-AEEA-γGlu-C18 diacid])HQ[Aib]DFVE[4Pal]LLAGGPSSGAPPPS-NH2),0.291 nM,> 5000 nM
CC[C@H](C)[C@H](NC(=O)[C@H](CO)NC(=O)[C@H](Cc1ccc(O)cc1)NC(=O)[C@H](CC(=O)O)NC(=O)[C@H](CO)NC(=O)[C@@H](NC(=O)[C@H](Cc1ccccc1)NC(=O)[C@@H](NC(=O)CNC(=O)[C@H](CCC(=O)O)NC(=O)C(C)(C)NC(=O)[C@@H](N)Cc1ccc(O)cc1)[C@@H](C)O)[C@@H](C)CC)C(=O)N[C@@H](CC(C)C)C(=O)N[C@@H](CC(C)C)C(=O)N[C@@H](CC(=O)O)C(=O)N[C@@H](CCCCN)C(=O)N[C@@H](CCCCNC(=O)COCCOCCNC(=O)COCCOCCNC(=O)CC[C@H](NC(=O)CCCCCCCCCCCCCCCCC(=O)O)C(=O)O)C(=O)N[C@@H](Cc1c[nH]cn1)C(=O)N[C@@H](CCC(N)=O)C(=O)NC(C)(C)C(=O)N[C@@H](CC(=O)O)C(=O)N[C@@H](Cc1ccccc1)C(=O)N[C@H](C(=O)N[C@@H](CCC(=O)O)C(=O)N[C@@H](Cc1ccncc1)C(=O)N[C@@H](CC(C)C)C(=O)N[C@@H](CC(C)C)C(=O)N[C@@H](C)C(=O)NCC(=O)NCC(=O)N1CCC[C@H]1C(=O)N[C@@H](CO)C(=O)N[C@@H](CO)C(=O)NCC(=O)N[C@@H](C)C(=O)N1CCC[C@H]1C(=O)N1CCC[C@H]1C(=O)N1CCC[C@H]1C(=O)N[C@@H](CO)C(N)=O)C(C)C [Example 22],0.0345 nM,1250 nM
